In patent publication US11311522B1 (Cavion, Inc., priority 2018, dated 2022):
Several values for one entry are separate records, joined by “and”; a condition that tells them apart may be missing. Equal values may be shown once.

Legend:
[1] = target: T1, Cav3.3 (Homo sapiens, UniProt Q9P0X4); assay: Cav3.3 whole-cell voltage-clamp; assay type: cell-based
T1 construct: expressed in transfected cells; host or cells: HEK 293

[2] = test system: patients with schizophrenia; assay: PN004: safety; assay type: in vivo, human
[3] = test system: patients with schizophrenia; assay: PN004: efficacy in acutely psychotic patients with schizophrenia (PANSS); details: human, in vivo
Excerpt: The primary efficacy endpoint was the mean change from baseline in the Positive and Negative Syndrome Scale (PANSS) total score at Week 4; secondary efficacy endpoints included responder rates on the PANSS total score at Week 4 and the change from baseline in the Clinical Global Impressions—Severity of Illness Scale at Week 4. Safety was monitored by adverse events, laboratory evaluations, ECGs, Holter monitoring, vital signs, the Simpson-Angus Scale, the Barnes Akathisia Rating Scale, the Abnormal Involuntary Movement Scale, and the Columbia Suicide-Severity Rating scale (C-SSRS).

[4] = PN005: safety and tolerability; assay type: in vivo, human
Excerpt: The visual disturbances tended to cease with eye opening and to recur with eye closure and were generally not disturbing to the subjects. […] No serious adverse events were reported, and none of the subjects discontinued treatment because of an adverse event. […] 5.3.3.1.3.2 Other Safety Assessments No clinically significant trends in safety laboratory parameters or vital signs were observed. […] No changes of ≥60 msec from baseline occurred, and no subject has a QTc interval ≥500 msec. […] The most common adverse events were headache, vivid dreams, and visual and/or auditory disturbances or hallucinations (typically described as seeing geometric shapes, colors, lights, and/or movement and hearing tones like from a telephone or electronic music). […] Clinical safety was monitored throughout the study by adverse events, clinical laboratory tests, vital signs, ECGs, and ECG telemetry.

[5] = Respiratory function, whole body plethysmography; details: female, rat; for Cmax: plasma, po
[6] = test system: respiratory function; assay: Respiratory function, whole body plethysmography; details: female, rat, in vivo
[7] = 90-day oral toxicology in rats; details: both, rat, in vivo
[8] = target: T2, hERG (Homo sapiens, UniProt Q12809); assay: hERG PatchXpress assay; assay type: cell-based; details: doses up to 30 μM
T2 construct: expressed in transfected cells; host or cells: CHO-K1
T2 sequence (Q12809 whole entry): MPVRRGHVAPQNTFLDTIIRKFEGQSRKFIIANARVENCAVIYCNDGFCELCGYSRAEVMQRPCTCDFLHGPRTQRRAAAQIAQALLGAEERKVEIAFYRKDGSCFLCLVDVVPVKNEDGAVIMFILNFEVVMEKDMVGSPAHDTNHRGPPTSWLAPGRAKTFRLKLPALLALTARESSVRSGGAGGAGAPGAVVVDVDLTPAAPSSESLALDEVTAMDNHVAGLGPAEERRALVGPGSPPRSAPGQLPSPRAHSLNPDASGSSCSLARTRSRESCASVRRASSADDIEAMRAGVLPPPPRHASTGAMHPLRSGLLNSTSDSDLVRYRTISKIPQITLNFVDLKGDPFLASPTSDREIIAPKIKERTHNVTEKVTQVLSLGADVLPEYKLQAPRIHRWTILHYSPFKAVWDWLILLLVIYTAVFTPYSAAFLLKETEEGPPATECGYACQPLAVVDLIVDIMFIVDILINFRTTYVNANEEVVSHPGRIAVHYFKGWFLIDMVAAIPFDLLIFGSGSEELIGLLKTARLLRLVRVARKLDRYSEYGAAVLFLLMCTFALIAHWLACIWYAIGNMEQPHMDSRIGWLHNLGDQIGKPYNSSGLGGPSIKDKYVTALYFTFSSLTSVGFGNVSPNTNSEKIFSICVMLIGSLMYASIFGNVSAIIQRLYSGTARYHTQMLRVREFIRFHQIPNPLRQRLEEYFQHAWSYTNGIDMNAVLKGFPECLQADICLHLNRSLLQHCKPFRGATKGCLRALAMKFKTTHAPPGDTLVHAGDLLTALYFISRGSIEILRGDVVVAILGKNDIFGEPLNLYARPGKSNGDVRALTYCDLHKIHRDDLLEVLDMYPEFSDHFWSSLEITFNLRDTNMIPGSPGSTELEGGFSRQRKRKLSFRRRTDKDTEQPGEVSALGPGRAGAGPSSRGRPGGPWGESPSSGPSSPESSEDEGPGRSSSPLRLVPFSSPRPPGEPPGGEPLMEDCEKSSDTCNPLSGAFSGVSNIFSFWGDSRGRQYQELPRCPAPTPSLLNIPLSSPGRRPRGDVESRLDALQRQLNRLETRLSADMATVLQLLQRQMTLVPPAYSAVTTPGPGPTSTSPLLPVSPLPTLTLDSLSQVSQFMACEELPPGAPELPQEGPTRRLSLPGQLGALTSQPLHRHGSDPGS

[9] = test system: slow wave activity; assay: PN003: polysomnogram, slow wave activity; assay type: in vivo, human; details: 12 mg single dose, 24 subjects, Study PN003
Experimental: A washout period of at least 2 weeks separated the treatment periods. […] The PSG recordings were initiated at each subject's habitual bedtime and continued for 8 hours.

[10] = in vivo; details: male, Beagle, dog, plasma, po, 20 mg/kg/day
[11] = test system: patients with essential tremor; assay: T-CALM: TETRAS performance subscale (TETRAS-PS)
[12] = Study PN004, subjects with schizophrenia, BID Days 1 to 28, CX-8998 N = 86, Olanzapine N = 47
[13] = single dose 8 mg, N = 7, middle-aged and elderly female subjects, Study PN005
[14] = Day 28, independent video raters

T1 sequence (Q9P0X4 whole entry, species assumed): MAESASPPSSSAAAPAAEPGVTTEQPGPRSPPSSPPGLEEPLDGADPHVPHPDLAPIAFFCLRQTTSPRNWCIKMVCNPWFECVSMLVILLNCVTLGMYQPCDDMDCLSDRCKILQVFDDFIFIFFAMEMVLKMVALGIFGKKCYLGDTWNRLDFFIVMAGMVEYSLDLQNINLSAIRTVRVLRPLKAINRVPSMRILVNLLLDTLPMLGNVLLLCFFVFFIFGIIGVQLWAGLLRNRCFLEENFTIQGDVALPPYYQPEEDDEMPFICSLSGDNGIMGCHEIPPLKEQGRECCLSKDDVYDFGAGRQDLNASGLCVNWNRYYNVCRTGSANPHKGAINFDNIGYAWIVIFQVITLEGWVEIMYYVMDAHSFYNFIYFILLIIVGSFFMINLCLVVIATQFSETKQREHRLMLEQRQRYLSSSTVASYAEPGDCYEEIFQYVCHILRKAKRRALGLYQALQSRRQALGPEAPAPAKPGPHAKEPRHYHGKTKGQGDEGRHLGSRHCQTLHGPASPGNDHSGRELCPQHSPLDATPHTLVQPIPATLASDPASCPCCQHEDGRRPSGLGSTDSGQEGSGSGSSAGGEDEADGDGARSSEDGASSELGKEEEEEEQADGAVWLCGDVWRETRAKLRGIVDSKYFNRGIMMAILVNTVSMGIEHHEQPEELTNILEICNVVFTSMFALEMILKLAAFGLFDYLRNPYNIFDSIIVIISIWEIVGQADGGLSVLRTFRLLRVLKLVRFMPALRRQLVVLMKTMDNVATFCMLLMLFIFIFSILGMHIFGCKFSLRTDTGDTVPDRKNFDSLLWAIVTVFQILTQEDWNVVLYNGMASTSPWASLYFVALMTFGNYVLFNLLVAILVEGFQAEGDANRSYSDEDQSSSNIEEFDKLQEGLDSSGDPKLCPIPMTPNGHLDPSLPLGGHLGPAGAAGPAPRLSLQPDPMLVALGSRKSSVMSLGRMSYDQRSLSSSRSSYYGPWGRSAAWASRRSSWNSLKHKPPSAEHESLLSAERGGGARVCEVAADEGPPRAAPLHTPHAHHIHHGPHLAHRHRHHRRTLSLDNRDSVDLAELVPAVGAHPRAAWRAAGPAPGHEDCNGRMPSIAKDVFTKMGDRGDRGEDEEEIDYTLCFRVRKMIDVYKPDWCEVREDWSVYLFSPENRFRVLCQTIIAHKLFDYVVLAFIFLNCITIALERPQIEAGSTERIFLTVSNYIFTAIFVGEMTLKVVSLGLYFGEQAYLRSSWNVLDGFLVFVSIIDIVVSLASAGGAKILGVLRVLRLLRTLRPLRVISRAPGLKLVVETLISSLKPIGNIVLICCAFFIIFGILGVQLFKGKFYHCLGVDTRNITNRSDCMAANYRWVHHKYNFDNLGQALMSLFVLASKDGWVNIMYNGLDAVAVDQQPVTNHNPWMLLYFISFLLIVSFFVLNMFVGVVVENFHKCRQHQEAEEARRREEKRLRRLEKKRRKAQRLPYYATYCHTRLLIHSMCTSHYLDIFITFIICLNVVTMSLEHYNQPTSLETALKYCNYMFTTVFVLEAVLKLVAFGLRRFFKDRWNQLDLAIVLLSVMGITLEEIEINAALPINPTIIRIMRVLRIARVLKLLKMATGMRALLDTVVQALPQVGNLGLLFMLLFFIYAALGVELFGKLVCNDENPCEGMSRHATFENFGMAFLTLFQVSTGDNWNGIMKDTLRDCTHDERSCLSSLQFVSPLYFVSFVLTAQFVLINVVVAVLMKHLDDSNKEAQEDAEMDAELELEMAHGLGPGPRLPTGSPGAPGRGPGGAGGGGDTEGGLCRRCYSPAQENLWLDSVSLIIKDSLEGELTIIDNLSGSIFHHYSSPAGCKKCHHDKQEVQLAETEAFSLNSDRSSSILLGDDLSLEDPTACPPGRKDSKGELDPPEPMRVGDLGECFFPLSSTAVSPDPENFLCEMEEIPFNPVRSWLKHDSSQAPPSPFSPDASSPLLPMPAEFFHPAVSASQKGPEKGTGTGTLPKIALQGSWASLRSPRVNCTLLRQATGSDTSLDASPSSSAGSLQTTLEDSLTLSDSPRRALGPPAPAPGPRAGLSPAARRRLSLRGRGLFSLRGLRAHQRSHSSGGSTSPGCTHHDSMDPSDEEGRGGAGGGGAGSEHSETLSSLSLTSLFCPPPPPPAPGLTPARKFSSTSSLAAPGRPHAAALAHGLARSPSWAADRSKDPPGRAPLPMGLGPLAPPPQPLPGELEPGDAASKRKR

Question: Which results are given for `CC(C)c1ccc(CC(=O)N[C@H](C)c2ccc(OCC(F)(F)F)cn2)cc1` [CX-8998]?
Answer: IC50 ([1]; Vh −80 mV): ~84 nM and 84 nM; IC50 ([1]; Vh=−100 mV): ~2400 nM and 2400 nM; Anxiety [2, 12]: 2 (2.3); At least 1 adverse event [2, 12]: 41 (47.7); Chronic pharyngitis [2, 12]: 2 (2.3); Dizziness [2, 12]: 2 (2.3); Headache [2, 12]: 2 (2.3); Insomnia [2, 12]: 13 (15.1); Rhinopharyngitis [2, 12]: 2 (2.3); Schizophrenia [2, 12]: 3 (3.5); Sinus tachycardia [2, 12]: 2 (2.3); Somnolence [2, 12]: 2 (2.3); Subjects who discontinued treatment because of adverse events ([2]; in vivo): 10.5%; Subjects with dizziness and vertigo ([2]; in vivo): 4.7%; PANSS total score change at Week 4 and secondary endpoints vs placebo [3]: No statistically significant differences; Tolerability ([4]; single 8 mg dose): well tolerated; Alanine aminotransferase increased [4, 13]: 1 (14.3) n (%); At least 1 adverse event [4, 13]: 6 (85.7) n (%); Dry mouth [4, 13]: 1 (14.3) n (%); Eye Disorders [4, 13]: 1 (14.3) n (%); Gastrointestinal Disorders [4, 13]: 3 (42.9) n (%); Hot flush [4, 13]: 1 (14.3) n (%); Hypoaesthesia oral [4, 13]: 1 (14.3) n (%); Inappropriate laughter [4, 13]: 2 (28.6) n (%); Infections and Infestations [4, 13]: 1 (14.3) n (%); Investigations [4, 13]: 1 (14.3) n (%); Irritability [4, 13]: 1 (14.3) n (%); Nausea [4, 13]: 1 (14.3) n (%); Nervousness [4, 13]: 1 (14.3) n (%); Psychiatric Disorders [4, 13]: 4 (57.1) n (%); Racing thoughts [4, 13]: 1 (14.3) n (%); Shingles [4, 13]: 1 (14.3) n (%); Vascular Disorders [4, 13]: 1 (14.3) n (%); Vision blurred [4, 13]: 1 (14.3) n (%); Vomiting [4, 13]: 1 (14.3) n (%); NOAEL ([5]; in vivo): 30 mg/kg; Cmax ([5]; 300 mg/kg): ~28 µM; Cmax ([5]; 2000 mg/kg): ~34 µM; NOEL for respiratory function [6]: < 30 mg/kg; NOAEL at 90 days ([7]; Sprague-Dawley, po): 300 mg/kg/day; NOAEL at 90 days ([7]; oral): 300 mg/kg/day; IC50 [8]: 28000 nM; IC20 ([8]; human, CHO-K1 cells expressing hERG): 8700 nM; Slow Wave Activity during the First One-Third of the Sleep Period, Geometric Mean [9]: 26.36 μV^2/Hz; Slow Wave Activity during the First One-Third of the Sleep Period, Raw Value Mean [9]: 30.51 μV^2/Hz; AUC [10]: 425 µM·h; Change from baseline in TETRAS-PS rated by physician, LS mean ([11]; Day 15 (8 mg BID)): −3.1; Change from baseline in TETRAS-PS rated by physician, LS mean ([11]; Day 28 (10 mg BID)): −4.6; TETRAS-PS LS mean difference from placebo (95% CI) [11, 14]: 0.5 (−1.5, 2.5); TETRAS-PS total score, Mean (SD) [11, 14]: 21.1 (6.71); TETRAS-PS total score, Median [11, 14]: 20.0; TETRAS-PS LS mean difference from placebo (95% CI) ([11]; Day 28, investigator rated): −2.0 (−4.0, 0.0); TETRAS-PS total score, Median ([11]; Day 28, investigator rated): 22.5; TETRAS-PS Total Score change from baseline to Day 28, LS mean difference from placebo (95% CI) ([11]; Independent Video Raters, subgroup Baseline TETRAS-PS Severity <=Median): 1.2 (−1.1, 3.4)
